A short description of this data set: solubility measurement in purified water and ethanol. As to conditions: for density up to which dissolved: 25° C.

The structures appear in SMILES notation.

For the compound `O=C(O)/C=C/c1ccc(O)c(O)c1` [caffeic acid], the solubility entry by setting is: (ethanol (25° C.), density 1 mg/mL) “dissolved”; (ethanol (25° C.), density 10 mg/mL) “dissolved”; (ethanol (25° C.), density 100 mg/mL) “not dissolved”; (purified water (25° C.), density 1 mg/mL) “not dissolved”; (purified water (25° C.), density 10 mg/mL) “not dissolved”; (purified water (25° C.), density 100 mg/mL) “not dissolved”. Also, the “density up to which dissolved” value is, setting by setting: (ethanol) no less than 10 mg/mL; (purified water) “not dissolved”.

Source of the values: US7750031B2, “Caffeic acid derivative and composition containing the same” (Thefaceshop Korea Co., Ltd., priority 2007, dated 2010).
